Results as given in patent publication US8288383B2, “3-methyl-2- ( (2S) -2- (4- (3-methyl-L, 2, 4-oxadiazol-5-YL) phenyl) morpholino) -6- (pyrim-idin-4-yl) pyrimidin-4 (3H) -one as tau protein kinase inhibitor” (Sanofi, priority 2007, dated 2012).
Read-outs that look alike come from different tables or passages of the source.

Assays:
tau phosphorylation = assay: Inhibitory activity on tau phosphorylation in vivo (pS396 Western blot of mouse cortex); conditions: 10 mg/kg p.o., male CD-1 mice, cortex removed after 1 h, pS396 antibody; ** = statistically significant
Experimental: Test compound was administrated to male CD-1 mice of 5-6 weeks weighing 25-35 g (Charles River Japan, inc.) at 10 mg/kg p.o. (0.5% polyethylen glycol sorbitan monolaurate 80 (Tween80)/water suspension) and after 1 h, mice were decapitated and cortex was promptly removed, followed by being frozen in liquid N2. […] Protein concentrations were determined using DC protein assay kit (BIO-RAD). Supernatants were diluted with sample buffer (62.5 mM Tris-HCl, 25% glycerol, 2% SDS, 0.01% Bromophenol Blue, pH6.8) to adjust the protein concentrations around […] and then boiled for […]. Samples (10 μg) were separated on 10% sodium dodecyl sulfate-polyacrylamide electrophoresis (SDS-PAGE) mini slab gels and transferred onto polyvinylidene difluoride (PVDF) membranes. Membranes were incubated with phosphate buffered saline (PBS) containing 5% non-fat milk for 1h at room temperature and then probed with pS396 anti-body (BIOSOURCE) over night at 4° C. Anti-rabbit IgG horseradish peroxidase (HRP) conjugated anti-body (Promega) was used as secondary anti-body. Membranes were visualized by Enhanced ChemiLuminescence (ECL) kit (Amerasham Bioscience) and detected by LAS1000 (Fuji Photo Film).

CYP2D6 = CYP2D6 (Homo sapiens, UniProt P10635); assay: Inhibitory activity on CYP2D6 (human recombinant CYPs); type: in vitro ADME; conditions: human recombinant CYP2D6, substrate ethylene glycol ester of luciferin-6'-methyl ether, 37° C., read-out: CYP 2D6 inhibition, IC50 value
CYP2D6, sequence (P10635 whole entry): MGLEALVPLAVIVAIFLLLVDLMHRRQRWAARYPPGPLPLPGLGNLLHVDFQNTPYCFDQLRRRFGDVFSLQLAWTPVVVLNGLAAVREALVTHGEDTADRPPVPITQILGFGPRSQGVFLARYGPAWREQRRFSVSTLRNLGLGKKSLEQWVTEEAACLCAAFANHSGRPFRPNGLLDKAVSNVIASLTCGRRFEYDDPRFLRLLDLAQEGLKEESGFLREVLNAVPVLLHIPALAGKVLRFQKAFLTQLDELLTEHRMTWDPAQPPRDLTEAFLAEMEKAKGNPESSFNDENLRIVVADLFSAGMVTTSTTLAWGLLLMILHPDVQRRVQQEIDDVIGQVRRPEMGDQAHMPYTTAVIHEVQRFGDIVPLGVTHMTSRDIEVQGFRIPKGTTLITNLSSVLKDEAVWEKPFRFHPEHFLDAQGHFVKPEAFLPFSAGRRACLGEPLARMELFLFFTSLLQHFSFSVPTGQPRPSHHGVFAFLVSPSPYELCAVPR
Experimental: The purpose of this pharmacokinetic study was to investigate the inhibitory effects of test compounds on the specific metabolic activity of human CYP isozymes using human recombinant CYPs in vitro. […] The specific substrate and positive control is ethylene glycol ester of luciferin-6′-methyl ether and quinidine, respectively. The substrate for the CYP isozyme was incubated with human recombinant CYPs in the presence or absence of the test compounds and the metabolic activity of the CYP isozyme was determined. The reaction mixture was preincubated at 37° C. without NADPH generating system. The reaction was started by the addition of NADPH generating system, and then terminated by the addition of acetonitrile. The activities of the human CYP isozymes were measured by fluorescence signal (CYP2D6) of reaction mixture. IC50 value for each compound was calculated by setting the data of reaction mixture without compound as 100% activity.

[1] = probe ethylene glycol ester of luciferin-6'-methyl ether

SMILES | in vivo % phosphorylation against vehicle (tau phosphorylation) | IC50 (CYP2D6) | melting point | IC50 (CYP2D6; [1])
Cc1noc(-c2ccc([C@H]3CN(c4nc(-c5ccncn5)cc(=O)n4C)CCO3)cc2)n1 [Compound of the present invention, 3-Methyl-2-((2S)-2-(4-(3-methyl-1,2,4-oxadiazol-5-yl)phenyl)morpholino)-6-(pyrimidin-4-yl)pyrimidin-4(3H)-one] | 69.86** % | > 50 µM | 219 °C (dec.) | 
Cn1c(N2CCOC(c3nc(-c4ccccc4)no3)C2)nc(-c2ccncn2)cc1=O (centres unmarked) [Compound 1, 1-Methyl-2-[2-(3-phenyl-[1,2,4]oxadiazol-5-yl)-morpholin-4-yl]-1H-[4,4′]bipyrimidinyl-6-one] | 92.12% |  |  | > 50 µM
Cn1c(N2CCOC(c3noc(-c4ccccc4)n3)C2)nc(-c2ccncn2)cc1=O (centres unmarked) [Compound 2, 1-Methyl-2-[2-(5-phenyl-[1,2,4]oxadiazol-3-yl)-morpholin-4-yl]-1H-[4,4′]bipyrimidinyl-6-one] |  |  |  | > 25 µM
Cn1ccnc1-c1ccc(C2CN(c3nc(-c4ccncn4)cc(=O)n3C)CCO2)cc1 (centres unmarked) [Compound 4, 1-Methyl-2-{2-[4-(1-methyl-1H-imidazol-2-yl)-phenyl]-morpholin-4-yl}-1H-[4,4′]bipyrimidinyl-6-one] |  |  | 179.8 °C (dec.) | > 50 µM
